Here are results for twelve molecules from patent US12215173B2, “Kappa opioid receptor peptide amide ligands” (priority 2019, dated 2025).

Usually IC50 stands for the concentration that inhibits the measured activity by half.

Assay [1] addresses recombinant human mu (MOR) opioid receptor (Homo sapiens (Human), UniProt P35372). Kind of assay: Opioid receptor radioligand binding assay, MOR.
The target of assay [2] is recombinant human delta (DOR) opioid receptor (Homo sapiens (Human), UniProt P41143). Kind of assay: Opioid receptor radioligand binding assay, DOR.
The target of assay [3] is recombinant human kappa (KOR) opioid receptor (Homo sapiens (Human), UniProt P41145). The assay can be described thus: biochemical. Conditions: HEK293 cell membranes, 0.5 nM [3H]diprenorphine. It counts as binding.
The mark [4] stands for this setting: HEK293 cell membranes, 0.5 nM [3H]DAMGO, read-out: MOR, IC50.
Where [5] appears, read: HEK293 cell membranes, 0.5 nM [3H]DADLE, read-out: DOR, IC50.

Like-named read-outs stand apart in the source and are kept apart here. Square brackets hold non-standard residues; d marks the D form. Peptide text beside a SMILES is read from it. * marks the point of attachment. Piperidin1yl(4-NH2,4-CO2Me) = COC(=O)C1(N)CCN(*)CC1; Pyrrolidinyl(3-NH2,3-CO2Me) = COC(=O)C1(N)CCN(*)C1; Tic = O=C(O)[C@@H]1Cc2ccccc2CN1; dTic = O=C(O)[C@H]1Cc2ccccc2CN1

Chain of recombinant human delta (DOR) opioid receptor (P41143 whole entry, looked up): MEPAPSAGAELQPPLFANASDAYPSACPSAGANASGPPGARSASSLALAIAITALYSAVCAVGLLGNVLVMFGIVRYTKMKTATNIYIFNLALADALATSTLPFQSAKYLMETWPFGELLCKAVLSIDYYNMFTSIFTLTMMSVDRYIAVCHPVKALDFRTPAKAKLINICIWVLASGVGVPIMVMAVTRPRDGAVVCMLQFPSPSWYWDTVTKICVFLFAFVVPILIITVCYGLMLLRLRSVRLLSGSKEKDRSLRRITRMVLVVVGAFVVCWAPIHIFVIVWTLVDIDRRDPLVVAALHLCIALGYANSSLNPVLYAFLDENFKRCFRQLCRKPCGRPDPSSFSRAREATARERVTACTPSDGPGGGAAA

For the molecule `CC(C)C[C@@H](NC(=O)[C@@H](Cc1ccccc1)NC(=O)[C@H](N)Cc1ccccc1)C(=O)N[C@H](CCCCN)C(=O)NCc1ccncc1O` [Compound 13-11], the figures for the IC50 in assay [1] (setting [4]), in assay [2] (setting [5]) and in assay [3] were over 10 µM, over 10 µM and 0.91 nM, respectively.
In the case of `CC(C)C[C@@H](NC(=O)[C@@H](Cc1ccccc1)NC(=O)[C@H](N)Cc1ccccc1)C(=O)N[C@H](CCCCN)C(=O)N1CCN(C(=O)/C=C/C(=O)O)CC1` [Compound 13-25], the IC50 in assay [1] (setting [4]) is over 10 µM; in assay [2] (setting [5]), over 10 µM; in assay [3] it was 5.56 nM.
As to `CCCN(C(=O)OC)C1CCN(C(=O)[C@@H](CCCCN)NC(=O)[C@@H](CC(C)C)NC(=O)[C@@H](Cc2ccccc2)NC(=O)[C@H](N)Cc2ccccc2)CC1` [Compound 13-49], the IC50 was over 10 µM in assay [1] (setting [4]), over 10 µM in assay [2] (setting [5]) and 0.46 nM in assay [3].
`COC(=O)C1(N)CCN(C(=O)[C@@H](CCCCN)NC(=O)[C@@H](CC(C)C)NC(=O)[C@@H]2Cc3ccccc3CN2C(=O)[C@H](N)Cc2ccccc2)C1` (stereo partly drawn) [Compound 146] (H-[dF][Tic][dL][dK]-{Pyrrolidinyl(3-NH2,3-CO2Me)}): the results for the IC50 in assay [1] (setting [4]), in assay [2] (setting [5]) and in assay [3] were over 10 µM, over 10 µM and 164 nM, respectively.
As for `COC(=O)C1(N)CCN(C(=O)[C@@H](CCCNC(=N)N)NC(=O)[C@H]2CCCN2C(=O)[C@@H](Cc2ccccc2)NC(=O)[C@H](N)Cc2ccccc2)C1` (stereo partly shown) [Compound 28] (H-[dF][dF][dP][dR]-{Pyrrolidinyl(3-NH2,3-CO2Me)}), the IC50 is over 10 µM in assay [1] (setting [4]), over 10 µM in assay [2] (setting [5]) and over 200 nM in assay [3].
As for `CC(C)C[C@@H](NC(=O)[C@@H](Cc1ccccc1)NC(=O)[C@H](N)Cc1ccccc1)C(=O)N[C@H](CCCCN)C(=O)N1CCC(NC(=O)C(N)=O)CC1` [Compound 13-57], the IC50 in assay [2] (setting [5]) was over 10 µM.
Regarding `CC(C)C[C@@H](NC(=O)[C@@H](Cc1ccccc1)NC(=O)[C@H](N)Cc1ccccc1)C(=O)N[C@H](CCCCN)C(=O)N1CCC2(CC1)CNC(=O)N2` [Compound 13-46], the IC50 in assay [1] (setting [4]) was over 10 µM; in assay [2] (setting [5]) it was over 10 µM; in assay [3], 0.31 nM.
As for `COC(=O)C1(N)CCN(C(=O)[C@@H](CCCCN)NC(=O)[C@@H](CC(C)C)NC(=O)[C@@H](Cc2ccccc2)NC(=O)[C@H]2Cc3ccccc3CN2)C1` (stereo partly drawn) [Compound 168] (H-[dTic][dF][dL][dK]-{Pyrrolidinyl(3-NH2,3-CO2Me)}), the results for the IC50 in assay [1], in assay [2] and in assay [3] were 2.41 µM, over 10 µM and 4.23 nM, respectively.
As for `COC(=O)C1(N)CCN(C(=O)[C@@H](CCCCN)NC(=O)[C@H]2CCCN2C(=O)[C@@H](Cc2ccccc2)NC(=O)[C@H](N)Cc2ccccc2)C1` (stereo partly shown) [Compound 92] (H-[dF][dF][dP][dK]-{Pyrrolidinyl(3-NH2,3-CO2Me)}), the IC50 is over 10 µM in assay [1] (setting [4]), over 10 µM in assay [2] (setting [5]) and 33 nM in assay [3].
Consider `COC(=O)C1(N)CCN(C(=O)[C@@H](CCCCN)NC(=O)[C@H]2CCCN2C(=O)[C@@H](Cc2ccccc2)NC(=O)[C@H](N)Cc2ccccc2)CC1` [Compound 89] (H-[dF][dF][dP][dK]-{Piperidin1yl(4-NH2,4-CO2Me)}), for which the IC50 in assay [1] (setting [4]) was over 10 µM; in assay [2] (setting [5]), over 10 µM; in assay [3], over 200 nM.
In the case of `COCCN(CCOC)C(=O)[C@@H](CCCCN)NC(=O)[C@@H](CC(C)C)NC(=O)[C@@H](Cc1ccccc1)NC(=O)[C@H](N)Cc1ccccc1` [Compound 13-3], the IC50 in assay [1] (setting [4]) is over 10 µM; in assay [2] (setting [5]), over 10 µM; in assay [3] it was 28.1 nM.
For `CC(C)C[C@@H](NC(=O)[C@@H](Cc1ccccc1)NC(=O)[C@H](N)Cc1ccccc1)C(=O)N[C@H](CCCCN)C(=O)N1CCC(NC(=O)C(N)=O)CC1` [Compound 13-33], the IC50 is over 10 µM in assay [1] (setting [4]), over 10 µM in assay [2] (setting [5]) and 0.54 nM in assay [3].
